Values quoted from earlier work in patent publication US7183392B2, “Site-specific, covalent bioconjugation of proteins” (Zyomyx, Inc., priority 2000, dated 2007).

Key:
[1] = target: RNA aptamer; details: 11 amino acid sequence, known RNA aptamer
[2] = aqueous and polar environments
[3] = target: Helix A / Helix B parallel heterodimer; details: parallel heterodimer of Helix A with Helix B; read-out: dissociation constant

| Kd [1] [nM] | Substance | solubility [2] | Kd [3] [nM] |
| --- | --- | --- | --- |
| ~190 | substance P: 11 amino acid long peptide sequence that binds a known RNA aptamer | – | – |
| – | EYQALEKEVAQLEAENNALEKEVAQLEHEG [Helix A] | very soluble | ~6 |
| – | EYQALKKKVAQLKAKNNALKKKVAQLKHKG [Helix B, basic leucine zipper helix based on GCN4, per Wendt et al] | very soluble | ~6 |
